Reference: patent publication US9458172B2, “Pyridinyl and pyrimidinyl sulfoxide and sulfone derivatives” (priority 2012, dated 2016)
Like-named read-outs stand apart in the source and are kept apart here.

Assays:
NAMPT = NAMPT (Homo sapiens (Human), UniProt P43490); experiment: Biochemical Inhibition Assay (NAMPT enzymatic reaction, NMN quantified by mass spectrometry); details: 33 nM recombinant His-tagged NAMPT, 1 μM NAM, 30 min at rt
Procedure: Assay 1: Biochemical Inhibition Assay
NAMPT protein purification. Recombinant His-tagged NAMPT was produced in E. coli cells, purified over a Ni column, and further purified over a size-exclusion column by XTAL Biostructures.
The NAMPT Enzymatic Reaction. The NAMPT enzymatic reactions were carried out in Buffer A (50 mM Hepes pH 7.5, 50 mM NaCl, 5 mM MgCl2, and 1 mM THP) in 96-well V-bottom plates. The compound titrations were performed in a separate dilution plate by serially diluting the compounds in DMSO to make a 100× stock. […] The compound and enzyme mixture was incubated for 15 min at rt, then 10 μL of 10× substrate and co-factors in Buffer A were added to the test well to make a final concentration of 1 μM NAM, […] 5-Phospho-D-ribose 1-diphosphate (PRPP), and 2.5 mM Adenosine 5′-triphosphate (ATP). The reaction was allowed to proceed for 30 min at rt, then was quenched with the addition of 11 μL of a solution of formic acid and L-Cystathionine to make a final concentration of 1% formic acid and 10 μM L-Cystathionine. Background and signal strength was determined by addition (or non-addition) of a serial dilution of NMN to a pre-quenched enzyme and cofactor mix.
Quantification of NMN. A mass spectrometry-based assay was used to measure the NAMPT reaction product, β-nicotinamide mononucleotide (NMN), and the internal control (L-Cystathionine). NMN and L-Cystathionine were detected using the services of Biocius Lifesciences with the RapidFire system. In short, the NMN and L-Cystathionine were bound to a graphitic carbon cartridge in 0.1% formic acid, eluted in 30% acetonitrile buffer, and injected into a Sciex 4000 mass spectrometer. The components of the sample were ionized with electrospray ionization and the positive ions were detected. […] The fragments are quantified and the analyzed by the following method.
Determination of IC50 Values. First, the NMN signal was normalized to the L-Cystathionine signal by dividing the NMN signal by the L-Cystathionine signal for each well. The signal from the background wells were averaged and subtracted from the test plates.

A2780 cells = experiment: In-Vitro Cell Proliferation Assay (SRB); details: Homo sapiens, A2780, 72 h
[1] = read-out: Cell Proliferation (IC50)
[2] = read-out: Cell Proliferation (IC50), A2780 cells, 72 h, sulforhodamine B

NAMPT, sequence (P43490 whole entry): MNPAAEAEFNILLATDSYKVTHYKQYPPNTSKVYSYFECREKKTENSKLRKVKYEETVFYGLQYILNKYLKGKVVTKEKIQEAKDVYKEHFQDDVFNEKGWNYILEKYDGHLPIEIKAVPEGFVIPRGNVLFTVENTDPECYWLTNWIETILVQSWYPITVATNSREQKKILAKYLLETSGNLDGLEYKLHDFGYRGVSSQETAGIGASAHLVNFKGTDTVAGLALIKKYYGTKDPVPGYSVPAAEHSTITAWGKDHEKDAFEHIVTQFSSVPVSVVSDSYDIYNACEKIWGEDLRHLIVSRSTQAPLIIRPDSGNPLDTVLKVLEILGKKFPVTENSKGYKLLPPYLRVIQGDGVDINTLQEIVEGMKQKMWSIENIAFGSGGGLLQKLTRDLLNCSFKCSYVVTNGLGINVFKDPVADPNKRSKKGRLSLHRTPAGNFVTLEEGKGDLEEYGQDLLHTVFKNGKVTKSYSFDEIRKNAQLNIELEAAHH

SMILES	IC50 (NAMPT) [nM]	IC50 (A2780 cells; [1]) [nM]	IC50 (A2780 cells; [2]) [nM]
Cn1cc(S(=O)(=O)c2ccc(CNC(=O)c3ccc4nccn4c3)nc2)cn1 [Example 36, Imidazo[1,2-a]pyridine-6-carboxylic acid [5-(1-methyl-1H-pyrazole-4-sulfonyl)-pyridin-2-ylmethyl]-amide]	101	472	–
O=C(NCc1ccc(S(=O)(=O)c2ccc(N3CCOCC3)cc2)cn1)c1cc2ccncc2o1 [Example 37, Furo[2,3-c]pyridine-2-carboxylic acid [5-(4-morpholin-4-yl-benzenesulfonyl)-pyridin-2-ylmethyl]-amide]	3.5	1	–
O=C(NCc1ccc(S(=O)(=O)c2ccc(N3CCOCC3)cc2)cn1)c1cnc2nccn2c1 [Example 38, Imidazo[1,2-a]pyrimidine-6-carboxylic acid [5-(4-morpholin-4-yl-benzenesulfonyl)-pyridin-2-ylmethyl]-amide]	2.1	–	10
O=C(NCc1ccc(S(=O)(=O)c2ccc(N3CCOCC3)cc2)cn1)c1cc2ccncc2s1 [Example 39, Thieno[2,3-c]pyridine-2-carboxylic acid [5-(4-morpholin-4-yl-benzenesulfonyl)-pyridin-2-ylmethyl]-amide]	2.8	–	0.8
Cn1cc(S(=O)(=O)c2ccc(CNC(=O)c3cc4ccncc4s3)nc2)cn1 [Example 40, Thieno[2,3-c]pyridine-2-carboxylic acid [5-(1-methyl-1H-pyrazole-4-sulfonyl)-pyridin-2-ylmethyl]-amide]	134	2000	–
O=C(NCc1ccc(S(=O)(=O)c2ccc(N3CCOCC3)nc2)cn1)c1cnc2[nH]ncc2c1 [Example 41, 1H-Pyrazolo[3,4-b]pyridine-5-carboxylic acid (5-(6-morpholin-4-yl-pyridine-3-sulfonyl)-pyridin-2-ylmethyl]-amide]	19	7.2	–
O=C(NCc1ccc(S(=O)(=O)C2CCN(C3CCOCC3)CC2)cn1)c1cc2cnccc2[nH]1 [Example 42, 1H-Pyrrolo[3,2-c]pyridine-2-carboxylic acid {5-[1-(tetrahydro-pyran-4-yl)-piperidine-4-sulfonyl]-pyridin-2-ylmethyl)-amide]	249	86.3	–
CCCn1cc(S(=O)(=O)c2ccc(CNC(=O)c3ccc4nccn4c3)nc2)cn1 [Example 43, Imidazo[1,2-a]pyridine-6-carboxylic acid [5-(1-propyl-1H-pyrazole-4-sulfonyl)-pyridin-2-ylmethyl]-amide]	27.3	24.1	–
CC(C)n1cc(S(=O)(=O)c2ccc(CNC(=O)c3ccc4nccn4c3)nc2)cn1 [Example 44]	29.9	–	20
CN1CCN(c2ccc(S(=O)(=O)c3ccc(CNC(=O)c4ccc5nccn5c4)nc3)cn2)CC1 [Example 46, Imidazo[1,2-a]pyridine-6-carboxylic acid {5-[6-(4-methyl-piperazin-1-yl)-pyridine-3-sulfonyl]-pyridin-2-ylmethyl}-amide]	6.9	1.6	–
CN1CCN(c2ccc(S(=O)(=O)c3ccc(CNC(=O)c4cnc5nccn5c4)nc3)cn2)CC1 [Example 47, Imidazo[1,2-a]pyrimidine-6-carboxylic acid {5-[6-(4-methyl-piperazin-1-yl)-pyridine-3-sulfonyl]-pyridin-2-ylmethyl}-amide]	2.2	14.1	–
CN1CCN(c2ccc(S(=O)(=O)c3ccc(CNC(=O)c4cnc5nccn5c4)nc3)cc2)CC1 [Example 48, Imidazo[1,2-a]pyrimidine-6-carboxylic acid {5-[4-(4-methyl-piperazin-1-yl)-benzenesulfonyl]-pyridin-2-ylmethyl)-amide]	2.3	8.5	–
O=C(NCc1ccc(S(=O)(=O)c2cccc(C(F)(F)F)c2)cn1)N1Cc2ccncc2C1 [Example 49, 1,3-Dihydro-pyrrolo[3,4-c]pyridine-2-carboxylic acid [5-(3-trifluoromethyl-benzenesulfonyl)-pyridin-2-ylmethyl]-amide]	3.7	34.5	–
O=C(NCc1ccc(S(=O)(=O)c2cccc(OC(F)(F)F)c2)cn1)N1Cc2ccncc2C1 [Example 50, 1,3-Dihydro-pyrrolo[3,4-c]pyridine-2-carboxylic acid [5-(3-trifluoromethoxy-benzenesulfonyl)-pyridin-2-ylmethyl]-amide]	3.4	13.5	–
O=C(NCc1ccc(S(=O)(=O)C2CCOCC2)cn1)c1cc2ccncc2o1 [Example 51, Furo[2,3-c]pyridine-2-carboxylic acid [5-(tetrahydro-pyran-4-sulfonyl)-pyridin-2-ylmethyl]-amide]	170	301	–
O=C(NCc1ccc(S(=O)(=O)c2ccc(N3CCOCC3)nc2)cn1)c1cc2ccncc2o1 [Example 52, Furo[2,3-c]pyridine-2-carboxylic acid [5-(6-morpholin-4-yl-pyridine-3-sulfonyl)-pyridin-2-ylmethyl]-amide]	2	–	0.5
O=C(NCc1ccc(S(=O)(=O)C2CCOCC2)cn1)c1cc2ccncc2s1 [Example 53, Thieno[2,3-c]pyridine-2-carboxylic acid [5-(tetrahydro-pyran-4-sulfonyl)-pyridin-2-ylmethyl]-amide]	92.1	548	–
O=C(NCc1ccc(S(=O)(=O)c2ccc(N3CCOCC3)nc2)cn1)c1cc2ccncc2s1 [Example 54, Thieno[2,3-c]pyridine-2-carboxylic acid [5-(6-morpholin-4-yl-pyridine-3-sulfonyl)-pyridin-2-ylmethyl]-amide]	1.7	0.5	–
O=C(NCc1ccc(S(=O)(=O)C2CCN(C3COC3)CC2)cn1)c1cc2ccncc2s1 [Example 56, Thieno[2,3-c]pyridine-2-carboxylic acid [5-(1-oxetan-3-yl-piperidine-4-sulfonyl)-pyridin-2-ylmethyl]-amide]	25.9	15.1	–
O=C(NCc1ccc(S(=O)(=O)C2CCCCC2)cn1)N1Cc2ccncc2C1 [Example 59, 1,3-Dihydro-pyrrolo[3,4-c]pyridine-2-carboxylic acid (5-cyclohexanesulfonyl-pyridin-2-ylmethyl)-amide]	27.5	–	237
O=C(NCc1ccc(S(=O)(=O)C2CCOCC2)cn1)c1ccc2nccn2c1 [Example 60, Imidazo[1,2-a]pyridine-6-carboxylic acid [5-(tetrahydro-pyran-4-sulfonyl)-pyridin-2-ylmethyl]-amide]	693	1300	–
COc1ccc(S(=O)(=O)c2ccc(CNC(=O)c3ccc4nccn4c3)nc2)cc1OC [Example 65, Imidazo[1,2-a]pyridine-6-carboxylic acid [5-(3,4-dimethoxy-benzenesulfonyl)-pyridin-2-ylmethyl]-amide]	30.7	7	–
COc1ccc(S(=O)(=O)c2ccc(CNC(=O)c3cc4ccncc4o3)nc2)cc1OC [Example 66, Furo[2,3-c]pyridine-2-carboxylic acid [5-(3,4-dimethoxy-benzenesulfonyl)-pyridin-2-ylmethyl]-amide]	2.8	2.8	–
CN(C)c1ccc(S(=O)(=O)c2ccc(CNC(=O)c3cc4ccncc4o3)nc2)cn1 [Example 67, Furo[2,3-c]pyridine-2-carboxylic acid [5-(6-dimethylamino-pyridine-3-sulfonyl)-pyridin-2-ylmethyl]-amide]	2.6	1.9	–
CN(C)c1ccc(S(=O)(=O)c2ccc(CNC(=O)c3cnc4nccn4c3)nc2)cn1 [Example 69, Imidazo[1,2-a]pyrimidine-6-carboxylic acid (5-(6-dimethylamino-pyridine-3-sulfonyl)-pyridin-2-ylmethyl]-amide]	5.4	25.9	–
COc1ccc(S(=O)(=O)c2ccc(CNC(=O)c3cnc4[nH]ncc4c3)nc2)cc1OC [Example 70, 1H-Pyrazolo[3,4-b]pyridine-5-carboxylic acid [5-(3,4-dimethoxy-benzenesulfonyl)-pyridin-2-ylmethyl]-amide]	48.5	–	24.6
O=C(NCc1ccc(S(=O)(=O)c2cc(F)cc(F)c2)cn1)N1Cc2ccncc2C1 [Example 73, 1,3-Dihydro-pyrrolo[3,4-c]pyridine-2-carboxylic acid [5-(3,5-difluoro-benzenesulfonyl)-pyridin-2-ylmethyl]-amide]	17.3	76.5	–
CN(C)c1ncc(S(=O)(=O)c2ccc(CNC(=O)c3ccc4nccn4c3)nc2)s1 [Example 74, Imidazo[1,2-a]pyridine-6-carboxylic acid [5-(2-dimethylamino-thiazole-5-sulfonyl)-pyridin-2-ylmethyl]-amide]	7.8	2.4	–
